*1 amine or outer side, *2 acyl side, *3 side chain or, on linkers, in order; H or OH if unused. Where a SMILES comes first, the peptide text is derived from it. Where no end group is shown, it is not given here. [ ]: non-standard residue; d: D form. The star is where a group is joined. Myristoyl = CCCCCCCCCCCCCC(=O)*; Suc = O=C(CCC(=O)[*:2])[*:1]; Aoc = NCCCCCCCC(=O)O; Ahx = NCCCCCC(=O)O
Biological target: T1, HIV-1 protease (Human immunodeficiency virus type 1 group M subtype B, UniProt P03366)
Assay: inhibitory activity against HIV-1 protease (cleavage of substrate Suc-Ser-Gln-Asn-Tyr-Pro-Ile-Val-Gln, HPLC / PICO-TAG analysis)
Format: biochemical
Design: partial pol protein containing HIV-1 protease; β-galactosidase (fusion partner in the expressed precursor); made in house; host or cells: E. coli K12 (UT481)
Details: same way as in 2) in Example 1
Protocol: (§1) Plasmid pLB550-1 for expressing a fusion protein of partial pol protein containing HIV-1 protease and β-galactosidase was transfected into E. coli K12 (UT481) [Werman, K. F. et al. J. Bacteriol, 163: 376 - 384 (1985)] by the CaCl2 method, and was enzyme-induced by isopropyl-β-D(-)-thiogalactopyranoside and was cultured for 6 hours. Thereafter, the bacteria were collected. The bacterial were treated with lysozyme and crashed with glass beads. Subsequently, the solubilized supernatant was purified by DEAE-cellulofine, SP-Toyopearl and pepstatin A agarose column chromatography, to obtain a purified HIV-1 protease.
Synthesized peptide composed of Suc-Ser-Gln-Asn-Tyr-Pro-Ile-Val-Gln as a substrate was dissolved into 50 mM MES-NaOH buffer solution (pH 5.5) so that its concentration in enzyme reaction would be 0.57 mM, 1.25 mM, 1.43 mM, 1.67 mM and 2.0 mM. […] Thereafter, enzyme activity thereof was measured by means of a PICO-TAG amino acid composition analyzing device. The initial velocities at the respective concentrations of the substrate were calculated and then analysis was performed based on by Lineweaver-Burk plots. […]
(§2) Concerning these 30 kinds of compounds, inhibitory effect against of HIV protease and IC50 were measured in the same way as in 2) in Example 1.
`CCCCCCCCCCCCCC(=O)N[C@@H](CCSC)C(=O)O` [Compound 23, N-Myr-M] gave an IC50 of 44 µM.
`CCCCCCCCCCCC(=O)N[C@@H](CCSC)C(=O)O` [Compound 25, N-Lau-M] gave an IC50 of 124 µM.

Biological target: T1, HIV-1 protease
Assay: as above
Format: biochemical
Design: β-galactosidase (fusion partner in the expressed precursor); made in house; host or cells: E. coli K12 (UT481)
Details: class symbols, inhibitory effect at 500 µM or less; read-out: IC50(µM) (Inhibitory effect)
Protocol: as §1
Synthesized peptide composed of Suc-Ser-Gln-Asn-Tyr-Pro-Ile-Val-Gln as a substrate was dissolved into 50 mM MES-NaOH buffer solution (pH 5.5) so that its concentration in enzyme reaction would be 0.57 mM, 1.25 mM, 1.43 mM, 1.67 mM and 2.0 mM. Into 50 µl of these substrate solutions, 50 µl of the purified enzyme solution of HIV-1 protease, obtained in the aforementioned preparing step, was added and then enzyme reaction was carried out at 37°C for 0 , 5, 10 and 15 minutes, respectively. To these solutions, 11.1 µl of acetonitryl containing 1% TFA was added to stop the enzyme reaction. The peptides obtained by the enzyme reaction were separated by high-performance liquid chromatography. Thereafter, enzyme activity thereof was measured by means of a PICO-TAG amino acid composition analyzing device. The initial velocities at the respective concentrations of the substrate were calculated and then analysis was performed based on by Lineweaver-Burk plots. […] In the substrate, the cleavage region was between Tyr and Pro.
On the other hand, the synthesized peptide, Suc-Ser-Gln-Asn-Tyr-Pro-Ile-Val-Gln as a substrate was used to measure inhibitory activity of the peptide of the sequence number 1 against HIV-1 protease as follows: 50 µl of the enzyme solution was added to 30 µl of solution of the peptide of the sequence number 1 in which the peptide was dissolved into 50 mM of MES-NaOH buffer solution (pH 5.5) so that its final concentration would be 10, 20, 40, 100 and 200 µM, and then enzyme reaction was carried out at 37 °C for 30 minutes.
Next, the solution of the substrate, Suc-Ser-Gln-Asn-Tyr-Pro-Ile-Val-Gln was added thereto so that its final concentration would be 1 mM, and then enzyme reaction was carried out at 37 °C for 0, 5, 10 and 15 minutes. To these solutions, 11.1 µl of acetonitryl containing 1% TFA was added to stop the enzyme reaction. The peptides obtained by the enzyme reaction were separated by high-performance liquid chromatography. Thereafter, enzyme activity thereof was measured by means of a PICO-TAG amino acid composition analyzing device. […] (The relative activity is represented as a percentage relative to the enzyme activity (value: 100) in the absence of the peptide of the sequence number 2.) From this graph, IC50 was calculated and obtained, so that IC50 was 10 µM.
50 µl of the enzyme solution was added to 30 µl of the peptide of the sequence number 2 dissolved into 50 mM of MES-NaOH buffer solution so that its final concentration would be 10 µM and then enzyme reaction was carried out at 37 °C for 30 minutes. The solution of the substrate, Suc-Ser-Gln-Asn-Tyr-Pro-Ile-Val-Gln was added thereto so that its final concentration would be 0.579 1.0, 1.43, 2.0 and 2.5 mM, and then enzyme reaction was carried out at 37 °C for 0, 5, 10 and 15 minutes. To these solutions, 11.1 µl of acetonitryl containing 1% TFA was added to stop the enzyme reaction, and then analysis was performed from Lineweaver-Burk plots. […] A control experiment was carried out in the absence of the peptide of the sequence number 2, in the same way.
as §2
In the case of AEAMSQV [Compound 13, AEAMSQV], the IC50 is reported as at least 500 µM.
`CSCC[C@H](NC(=O)CCCCCCCN)C(=O)NCCCCCCCC(=O)NCCCCCCCC(=O)O` [Compound 29, N-AocMAocAoc] showed an IC50 of at least 500 µM.
Compound `CSCC[C@H](NC(=O)[C@H](C)NC(=O)[C@H](CCC(=O)O)NC(=O)[C@H](C)NC(=O)CCC(=O)O)C(=O)N[C@@H](CO)C(=O)N[C@@H](CCC(N)=O)C(=O)NCCCCCC(=O)O` [Compound 16, Suc-AEAMSQAhx] (Suc-AEAMSQ[Ahx]-OH) has an IC50 of at least 500 µM.
Compound `CSCC[C@H](NC(=O)CCCCCCCN)C(=O)NCCCCCCCC(=O)O` [Compound 28, N-AocMAoc] has an IC50 of at least 500 µM.
AEAMSQVAN [Compound 10, AEAMSQVAN] gave an IC50 of at least 500 µM.
In the case of `CSCC[C@H](NC(=O)CCCCCCCNC(=O)CCCCCCCN)C(=O)NCCCCCCCC(=O)O` [Compound 30, N-AocAocMAoc], the IC50 is reported as at least 500 µM.
Compound AEAMAQVTN [Compound 9, AEAMAQVTN] has an IC50 of at most 500 µM.
AEAMSQ [Compound 17, AEAMSQ] showed an IC50 of at least 500 µM.
Compound `CSCC[C@H](NC(=O)CCCCCCCN)C(=O)O` [Compound 27, N-AocM] has an IC50 of at least 500 µM.
In the case of “AEAMSQVANTATIM [Compound 5, AEAMSQVANTATIM]”, the IC50 is reported as at most 500 µM.
In the case of `CSCC[C@H](NC(=O)[C@H](C)NC(=O)[C@H](CCC(=O)O)NC(=O)[C@H](C)N)C(=O)O` [Compound 19, AEAM] (H-AEAM-OH), the IC50 is reported as at least 500 µM.
With AEAASQVTN [Compound 8, AEAASQVTN] the IC50 was at least 500 µM.
For VTNTATIM [Compound 22, VTNTATIM], the IC50 was at least 500 µM.
Compound AAAMSQVTN [Compound 7, AAAMSQVTN] has an IC50 of at most 500 µM.
`CSCC[C@H](NC(=O)[C@H](C)NC(=O)[C@H](CCC(=O)O)NC(=O)[C@H](C)N)C(=O)N[C@@H](CO)C(=O)N[C@@H](CCC(N)=O)C(=O)NCCCCCCCC(=O)O` [Compound 14, AEAMSQAoc] (H-AEAMSQ[Aoc]-OH) gave an IC50 of at least 500 µM.
Compound AEAMSQVT [Compound 12, AEAMSQVT] has an IC50 of at least 500 µM.
In the case of `CC(C)[C@H](N)C(=O)N[C@H](C(=O)N[C@@H](CC(N)=O)C(=O)O)[C@@H](C)O` [Compound 21, VTN] (H-Val-Thr-Asn-OH), the IC50 is reported as at least 500 µM.
`CC[C@H](C)[C@H](NC(=O)[C@@H](NC(=O)[C@H](C)NC(=O)[C@@H](NC(=O)[C@H](CC(N)=O)NC(=O)[C@@H](NC(=O)[C@@H](NC(=O)[C@H](CCC(N)=O)NC(=O)[C@H](CO)NC(=O)[C@H](CCSC)NC(=O)[C@H](C)NC(=O)[C@H](CCC(=O)O)NC(=O)[C@H](C)N)C(C)C)[C@@H](C)O)[C@@H](C)O)[C@@H](C)O)C(=O)N[C@@H](CCSC)C(=O)O` [Compound 4, AEAMSQVTNTATIM] showed an IC50 of at most 500 µM.
Work on `CC[C@H](C)[C@H](NC(=O)[C@@H](NC(=O)[C@H](C)NC(=O)[C@@H]1CCCN1C(=O)[C@H](CC(N)=O)NC(=O)[C@@H](NC(=O)[C@@H](NC(=O)[C@H](CCC(N)=O)NC(=O)[C@H](CO)NC(=O)[C@H](CCSC)NC(=O)[C@H](C)NC(=O)[C@H](CCC(=O)O)NC(=O)[C@H](C)N)C(C)C)[C@@H](C)O)[C@@H](C)O)C(=O)N[C@@H](CCSC)C(=O)O` [Compound 3, AEAMSQVTNPATIM] yielded an IC50 of at least 500 µM.
For `CSCC[C@H](NC(=O)[C@H](C)NC(=O)[C@H](CCC(=O)O)NC(=O)[C@H](C)N)C(=O)N[C@@H](CO)C(=O)N[C@@H](CCC(N)=O)C(=O)NCCCCCC(=O)O` [Compound 15, AEAMSQAhx] (H-AEAMSQ[Ahx]-OH), the IC50 was at least 500 µM.

Same assay, conditions: same way as in 2) in Example 1; read-out: IC50
For `CCCCCCCCCCCCCC(=O)N[C@@H](C)C(=O)N[C@@H](CCC(=O)O)C(=O)N[C@@H](C)C(=O)N[C@@H](CCSC)C(=O)N[C@@H](CO)C(=O)N[C@@H](CCC(N)=O)C(=O)O` [Compound 18, N-Myr-AEAMSQ] (Myristoyl-AEAMSQ-OH), the IC50 was 79 µM.
In the case of AEAMSQVTL [Compound 11, AEAMSQVTL], the IC50 is reported as 53 µM.
In the case of `CCCCCCCCCCCCCC(=O)N[C@@H](C)C(=O)N[C@@H](CCC(=O)O)C(=O)N[C@@H](C)C(=O)N[C@@H](CCSC)C(=O)O` [Compound 20, N-Myr-AEAM] (Myristoyl-AEAM-OH), the IC50 is reported as 16 µM.
In the case of AEAMSQVTN [Compound 6, AEAMSQVTN], the IC50 is reported as 6 µM.
With “AEAMSQVTNSATIM [Compound 2, AEAMSQVTNSATIM]” the IC50 was 22 µM.

Same assay, conditions: substrate 0.57-2.0 mM, pH 5.5, 37°C, Lineweaver-Burk plots (Fig. 1)
Compound `CC[C@H](C)[C@H](NC(=O)[C@@H]1CCCN1C(=O)[C@H](Cc1ccc(O)cc1)NC(=O)[C@H](CC(N)=O)NC(=O)[C@H](CCC(N)=O)NC(=O)[C@H](CO)NC(=O)CCC(=O)O)C(=O)N[C@H](C(=O)N[C@@H](CCC(N)=O)C(=O)O)C(C)C` [Suc-Ser-Gln-Asn-Tyr-Pro-Ile-Val-Gln, reference compound] (Suc-SQNYPIVQ-OH) has a Km of 2.2 mM.

Biological target: T1, HIV-1 protease
Assay: not given
Design: β-galactosidase (fusion partner in the expressed precursor); made in house; host or cells: E. coli K12 (UT481)
Details: Biochem. Biophys. Res. Commun. 194: 595 - 600; cited from earlier work
In the case of Ac-TVSFNF, the inhibitory activity is listed as “has inhibitory activity”.

Source: patent EP0922455A1, “HIV-1 PROTEASE INHIBITORS, PROCESS FOR PRODUCING THE SAME, AND MEDICINAL COMPOSITIONS” (NISSUI PHARMACEUTICAL CO., LTD., priority 1997, dated 1998)
